Source: article PMC5035018, “Arachidonic Acid Metabolite 19(S)-HETE Induces Vasorelaxation and Platelet Inhibition by Activating Prostacyclin (IP) Receptor” (PLoS ONE, 2016)

Molecular target: T1, prostacyclin (IP) receptor (Homo sapiens, UniProt P43119)
T1 construct: gene PTGIR; human IP receptor cDNA expressed in COS-1 cells
Experiment: [3H]-iloprost competition radioligand binding on transfected COS-1 cells (also cAMP EC50 […])
Type: cell-based

T1 sequence (P43119 1-383): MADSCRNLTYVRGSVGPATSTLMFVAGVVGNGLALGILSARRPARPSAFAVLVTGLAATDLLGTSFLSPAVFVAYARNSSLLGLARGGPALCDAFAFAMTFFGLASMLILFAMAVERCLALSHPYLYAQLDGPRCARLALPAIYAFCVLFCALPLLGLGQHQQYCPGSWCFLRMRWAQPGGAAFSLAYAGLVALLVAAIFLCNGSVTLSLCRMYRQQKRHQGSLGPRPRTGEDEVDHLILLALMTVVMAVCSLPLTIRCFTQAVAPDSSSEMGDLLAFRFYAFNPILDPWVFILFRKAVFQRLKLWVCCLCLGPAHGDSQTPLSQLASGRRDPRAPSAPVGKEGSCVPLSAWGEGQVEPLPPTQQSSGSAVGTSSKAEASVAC

Work on `C[C@H](O)CCC/C=C\C/C=C\C/C=C\C/C=C\CCCC(=O)O` [19(S)-HETE, 19(S)-hydroxy-5Z,8Z,11Z,14Z-eicosatetraenoic acid] yielded a Ki of 660 nM.
